# Test results published in patent US10945998B2, “Inhibitors of short-chain dehydrogenase activity for treating fibrosis” (CASE WESTERN RESERVE UNIVERSITY, priority 2015, dated 2021).
# How the values were obtained:
# [1] = tested on: mouse model of intestinal fibrosis; experiment: DSS chronic colitis mouse model of intestinal fibrosis; assay type: in vivo, FVB/N mice; conditions: 5 mg/kg IP twice a day for 28 days from day 41, colons day 69, vs vehicle
# Protocol: To establish a model of intestinal fibrosis due to chronic colitis, 8-week male FVB/N mice were subjected to three cycles of dextran sodium sulfate (DSS; 2% w/v) in sterile drinking water. Each cycle consisted of 7 days of DSS followed by 10 days of recovery without DSS. […] On day 69, colons were harvested from mice, longitudinally open, and embedded in agar for orientation, and fixed in formalin overnight. Slides were prepared from paraffin-embedded formalin-fixed samples according to standard procedures. The degree of fibrosis in the mouse colon in the two groups were compared by Masson's Trichrome staining. The intensity of positive trichrome staining was quantified using ImageJ software in the following manner. 10 evenly spaced images were captured at 20× from each third of the colon from each mouse. (FIGS. 7(A-D)) Significant lymphovascular compartments or extracolonic connective tissue attachments seen on slides were excluded during the image capture. RGB channels were split from the images, and the blue channel from each image was divided by the red channel. After generating an intensity histogram of all pixels in the resultant image, the area under the curve (AUC) was calculated for intensities above 1.3 (blue/red) cutoff. The sum of AUC (total trichrome intensity) was normalized by the colon length.
# [2] = tested on: mouse model of idiopathic pulmonary fibrosis; experiment: bleomycin mouse model of idiopathic pulmonary fibrosis; assay type: in vivo, C57/BL6J mice; conditions: vs vehicle
# Protocol: 8 week old female C57/BL6J mice were purchased from Jackson Labs (stock #000664). All mouse studies were approved by the institutional animal care and use committee at Case Western Reserve University.
# To induce disease onset, mice were anesthetized with ketamine/xylazine and the trachea exposed by cervical […]. Bleomycin sulfate (Enzo-BML-AP302-0010) was dissolved in H2O and administered intratracheally as a single dose of 2 mg/kg in 50 μl solution per animal.
# Mortality was observed daily over the duration of the study. Body weights were measured prior to instillation and twice weekly post-bleomycin instillation.
# Hydroxyproline was used to measure collagen content in mouse lungs (Sigma-MAK008-1KT). Briefly, mice were sacrificed and the right lung dissected for collagen quantitation. Experiments were performed according to the manufacturer's protocol. […] The hydrolyzed samples were incubated with 4-(Dimethylamino) benzaldehyde (DMAB) for 90 min at 60° C., and the absorbance of oxidized hydroxyproline was measured at 560 nm.
# mice = experiment: toxicity after IP injection into mice
# [3] = chemical stability in aqueous solutions; assay type: physicochemical; conditions: over broad pH range
# [4] = chemical stability when incubated with hepatocyte extracts; assay type: in vitro ADME
# [5] = chemical stability when incubated with hepatocyte cell lines; assay type: in vitro ADME
# [6] = plasma half-life after IP injection into mice; assay type: in vivo; conditions: mouse, injected IP into mice
# [7] = tested on: PGE2 production by cell lines; experiment: PGE2 production by cell lines; assay type: cell-based
# [8] = chemical stability when incubated with human liver extracts; assay type: in vitro ADME
# [9] = chemical stability when incubated with rat liver extracts; assay type: in vitro ADME
# recombinant 15-PGDH = molecular target: T1, recombinant 15-PGDH (Homo sapiens, UniProt P15428); experiment: inhibition of recombinant 15-PGDH; assay type: biochemical
# T1 sequence (P15428 1-266): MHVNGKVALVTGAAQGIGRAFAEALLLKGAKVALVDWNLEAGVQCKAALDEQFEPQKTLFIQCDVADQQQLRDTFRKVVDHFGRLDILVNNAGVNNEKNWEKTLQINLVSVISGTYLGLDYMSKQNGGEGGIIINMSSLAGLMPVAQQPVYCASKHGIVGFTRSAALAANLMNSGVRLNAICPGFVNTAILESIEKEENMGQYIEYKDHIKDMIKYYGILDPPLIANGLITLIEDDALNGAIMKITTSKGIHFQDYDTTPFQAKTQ
# [10] = chemical stability when incubated with mouse liver extracts; assay type: in vitro ADME
# [11] = 5.0 mg/kg IP 2× daily for 35 days after bleomycin
smiles,measurement,setting,value
"CCCC[S+]([O-])c1sc2nc(-c3cccs3)cc(-c3ccccc3)c2c1N (single isomer, unassigned; (+)) [(+)SW033291]",colonic fibrosis (Masson's Trichrome staining intensity normalized by colon length),[1],substantially reduced
"CCCC[S+]([O-])c1sc2nc(-c3cccs3)cc(-c3ccccc3)c2c1N (stereo not drawn) [SW033291, 2-(butylsulfinyl)-4-phenyl-6-(thiophen-2-yl)thieno[2,3-b]pyridin-3-amine]",survival,[2]; [11],improved survival
same,weight change,[2]; [11],enhanced maintenance of weight
same,collagen deposition (tissue hydroxyproline content),"[2]; lung, 5.0 mg/kg IP 2× daily after bleomycin",reduced collagen deposition
CCCC[S+]([O-])c1sc2nc(-c3cccs3)cc(-c3ccccc3)c2c1N (stereo not drawn) [formula (IX)],toxicity,mice; injected IP into mice at 0.3 μmole/per mouse twice daily for 21 days,no toxicity
same,immediate toxicity over 24 hours,mice; injected IP into mice at 0.6 μmole/per mouse,no immediate toxicity
same,immediate toxicity over 24 hours,mice; injected IP into mice at 1.2 μmole/per mouse,no immediate toxicity
same,chemical stability in aqueous solutions,[3],chemically stable
same,chemical stability with hepatocyte extracts,[4],chemically stable
same,chemical stability with hepatocyte cell lines,[5],chemically stable
same,half-life,[6],4.22 h
same,PGE2 production by cell lines,[7],increase PGE2 production
CCCC[S+]([O-])c1sc2nc(-c3nccs3)cc(-c3cnc(C)n3C)c2c1N (stereo not drawn) [formula (X)],chemical stability with liver extracts,[8],chemically stable
same,chemical stability with liver extracts,[9],chemically stable
same,concentration at which recombinant 15-PGDH is inhibited,recombinant 15-PGDH,3 nM
same,chemical stability with liver extracts,[10],chemically stable
same,half-life,[6],0.55 h
same,concentration at which PGE2 production by cell lines is increased,[7],20 nM
